Assays:
Assay type in all cases: functional
[1] = Antioxidant activity against copper-induced lipid peroxidation in human LDL assessed as inhibition of malondialdehyde formation at 20 uM relative to control; design: scale not given: the % may be the effect or the level left
[2] = Antioxidant activity against copper-induced lipid peroxidation in human LDL assessed as inhibition of malondialdehyde formation at 10 uM relative to control; design: scale not given: the % may be the effect or the level left
[3] = Antioxidant activity against copper-induced lipid peroxidation in human LDL assessed as inhibition of malondialdehyde formation at 5 uM relative to control; design: scale not given: the % may be the effect or the level left
[4] = Antioxidant activity against copper-induced lipid peroxidation in human LDL assessed as inhibition of malondialdehyde formation at 100 uM relative to control; design: scale not given: the % may be the effect or the level left
[5] = Antioxidant activity against copper-induced lipid peroxidation in human LDL assessed as inhibition of malondialdehyde formation at 200 uM relative to control; design: scale not given: the % may be the effect or the level left
[6] = Antioxidant activity against copper-induced lipid peroxidation in human LDL assessed as inhibition of malondialdehyde formation at 50 uM relative to control; design: scale not given: the % may be the effect or the level left
[7] = Antioxidant activity against copper-induced lipid peroxidation in human LDL assessed as inhibition of malondialdehyde formation at 2 uM relative to control; design: scale not given: the % may be the effect or the level left
[8] = Antioxidant activity against copper-induced lipid peroxidation in human LDL assessed as inhibition of malondialdehyde formation

Row | SMILES | Activity [1] [%] | Activity [2] [%] | Activity [3] [%] | Activity [4] [%] | Activity [5] [%] | Activity [6] [%] | Activity [7] [%] | IC50 [8] [µM]
1 | Cn1cncc1C[C@H](NC(=O)CCN)C(=O)O | 2.14 | 1.05 | 0.51 | 12.2 | 18.7 | 8.55 | 0.23 | –
2 | Cn1cncc1CC(NC(=O)CCN[C@@H]1[C@@H](O)[C@H]2O[C@H]3[C@H](O)[C@@H](O)[C@@H](O[C@H]4[C@H](O)[C@@H](O)[C@@H](O[C@H]5[C@H](O)[C@@H](O)[C@@H](O[C@H]6[C@H](O)[C@@H](O)[C@@H](O[C@H]7[C@H](O)[C@@H](O)[C@@H](O[C@H]8[C@H](O)[C@@H](O)[C@@H](O[C@@H]1[C@@H](CO)O2)O[C@@H]8CO)O[C@@H]7CO)O[C@@H]6CO)O[C@@H]5CO)O[C@@H]4CO)O[C@@H]3CO)C(=O)O (some centres not stated) | – | – | – | – | – | – | – | 41.6
3 | O=C(CCN[C@@H]1[C@@H](O)[C@H]2O[C@H]3[C@H](O)[C@@H](O)[C@@H](O[C@H]4[C@H](O)[C@@H](O)[C@@H](O[C@H]5[C@H](O)[C@@H](O)[C@@H](O[C@H]6[C@H](O)[C@@H](O)[C@@H](O[C@H]7[C@H](O)[C@@H](O)[C@@H](O[C@H]8[C@H](O)[C@@H](O)[C@@H](O[C@@H]1[C@@H](CO)O2)O[C@@H]8CO)O[C@@H]7CO)O[C@@H]6CO)O[C@@H]5CO)O[C@@H]4CO)O[C@@H]3CO)NC(Cc1cnc[nH]1)C(=O)O (some centres not stated) | – | – | – | – | – | – | – | 23.4
4 | OC[C@H]1O[C@@H]2O[C@H]3[C@H](O)[C@@H](O)[C@@H](O[C@H]4[C@H](O)[C@@H](O)[C@@H](O[C@H]5[C@H](O)[C@@H](O)[C@@H](O[C@H]6[C@H](O)[C@@H](O)[C@@H](O[C@H]7[C@H](O)[C@@H](O)[C@@H](O[C@H]8[C@H](O)[C@@H](O)[C@@H](O[C@H]1[C@H](O)[C@H]2O)O[C@@H]8CO)O[C@@H]7CO)O[C@@H]6CO)O[C@@H]5CO)O[C@@H]4CO)O[C@@H]3CO | 1.26 | 0.65 | 0.38 | 6.94 | 10.7 | 3.87 | 0.11 | –
5 | Cn1cncc1CC(NC(=O)CCNC[C@H]1O[C@@H]2O[C@H]3[C@H](O)[C@@H](O)[C@@H](O[C@H]4[C@H](O)[C@@H](O)[C@@H](O[C@H]5[C@H](O)[C@@H](O)[C@@H](O[C@H]6[C@H](O)[C@@H](O)[C@@H](O[C@H]7[C@H](O)[C@@H](O)[C@@H](O[C@H]8[C@H](O)[C@@H](O)[C@@H](O[C@H]1[C@H](O)[C@H]2O)O[C@@H]8CO)O[C@@H]7CO)O[C@@H]6CO)O[C@@H]5CO)O[C@@H]4CO)O[C@@H]3CO)C(=O)O (some centres not stated) | – | – | – | – | – | – | – | 88.7

Source: ChEMBL document CHEMBL1149781, “New glycosidic derivatives of histidine-containing dipeptides with antioxidant properties and resistant to carnosinase activity” (Eur J Med Chem, 2008)
